In patent US20240058268A1, “METHODS OF TREATING SKIN DISORDERS” (priority 2021, published 2024):

Tests used:
[1] = system: acne papule biopsies, Diseases or Functions Annotation; assay: Ingenuity Pathway Analysis, diseases or functions activation of the trifarotene signature; assay type: in vivo, human; conditions: trifarotene treated area (day 27) vs papule before treatment
Method: Functional and network analysis were generated with the Ingenuity Pathway Analysis software (QIAGEN® Inc., qiagenbioinformatics.com/products/ingenuity-pathway-analysis), and with Open Targets (opentargets.org/). IPA was used to identify canonical pathways, diseases and functions, and gene networks related to differentially expressed genes in acne lesions and post-lesional skin after treatment with trifarotene or vehicle. In addition, gene set enrichment analysis was performed with the R package FGSEA (version 1.12.0) using the hallmark and reactome gene sets. A comparative analysis was performed to identify expression patterns: For this analysis, the following comparisons were made to develop characteristic expression patterns: (a) Papule before treatment vs non-involved skin was used to derive an acne signature; (b) Resolved papule zone after treated with vehicle vs papule before treatment was used to derive signature of spontaneously resolved papule; and (c) Resolved papule zone after treatment with trifarotene vs papule before treatment to determine trifarotene treatment signature. […]

[2] = system: acne papule biopsies, gene sets; assay: Gene set enrichment analysis (FGSEA, hallmark and reactome gene sets); assay type: in vivo, human; conditions: inflammatory response, TNFA signaling via NF-kB, neutrophil degranulation, chemokines and receptors; collagen degradation, extracellular matrix degradation/organization
Method: Functional and network analysis were generated with the Ingenuity Pathway Analysis software (QIAGEN® Inc., qiagenbioinformatics.com/products/ingenuity-pathway-analysis), and with Open Targets (opentargets.org/). IPA was used to identify canonical pathways, diseases and functions, and gene networks related to differentially expressed genes in acne lesions and post-lesional skin after treatment with trifarotene or vehicle. In addition, gene set enrichment analysis was performed with the R package FGSEA (version 1.12.0) using the hallmark and reactome gene sets.

Structure (SMILES): CC(C)(C)c1cc(-c2cc(-c3ccc(C(=O)O)cc3)ccc2OCCO)ccc1N1CCCC1 [Trifarotene, 3″-tert-Butyl-4′-(2-hydroxy-ethoxy)-4″-pyrrolidin-1-yl-[1,1′,3′,1″ ]terphenyl-4-carboxylic acid]
- Activation z.score Trifarotene signature: Flux of Ca2+ [1]: −2.838
- gene set enrichment: inflammatory modules and tissue remodeling gene sets [2]: downregulates
